{"source": "ChEMBL document CHEMBL1201862", "about": "“PubChem BioAssay data set” (2004)", "test_in_all_cases": "NCI anticancer screen, dose series, 48 h", "key": {"PC-3": {"test_system": "PC-3"}, "786-0": {"test_system": "786-0"}, "DMS-114": {"test_system": "DMS-114"}, "HOP-18": {"test_system": "HOP-18"}, "XF498": {"test_system": "XF498"}, "M19-MEL": {"test_system": "M19-MEL"}, "LXFL 529": {"test_system": "LXFL 529"}, "KM-20L2": {"test_system": "KM-20L2"}, "RXF 631": {"test_system": "RXF 631"}}, "note": "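Results reflect a 48-hour exposure of cells in 96-well plates to compound at five concentrations. Abbreviation: GI50, concentration required for 50% inhibition of growth.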 Active and inactive are the calls of the source. Cut-off read from the data, not from the text of the source: active = GI50 up to about 1.1 µM and inactive = higher.", "data": [{"smiles": "N#Cc1c(OCCF)c2ccccc2n2c1nc1ccccc12", "values": [{"measurement": "GI50", "setting": "PC-3", "result": "59.2 µM (inactive)"}]}, {"smiles": "COc1ccc(NC(=O)CC(=O)N2N=C(N3c4ccccc4Sc4ccccc43)CC2c2ccccc2)cc1", "note": "(stereo unspecified)", "values": [{"measurement": "GI50", "setting": "PC-3", "result": "> 100 µM (inactive)"}, {"measurement": "GI50", "setting": "786-0", "result": "> 100 µM (inactive)"}]}, {"smiles": "COC1OC2COC(c3ccccc3)OC2C(OC(=S)c2ccccc2)C1O", "note": "(stereo unspecified)", "values": [{"measurement": "GI50", "setting": "PC-3", "result": "4.61 µM (inactive)"}]}, {"smiles": "C1=N\\CCOCC/N=C\\c2ccc(cc2)OCc2cccc(n2)COc2ccc/1cc2", "values": [{"measurement": "GI50", "setting": "PC-3", "result": "> 100 µM (inactive)"}, {"measurement": "GI50", "setting": "786-0", "result": "> 100 µM (inactive)"}]}, {"smiles": "Cc1ccc(N2C(=O)C3CSCN3C2=O)cc1", "note": "(stereo unspecified)", "values": [{"measurement": "GI50", "setting": "DMS-114", "result": "> 100 µM (inactive)"}, {"measurement": "GI50", "setting": "HOP-18", "result": "> 100 µM (inactive)"}, {"measurement": "GI50", "setting": "XF498", "result": "> 100 µM (inactive)"}, {"measurement": "GI50", "setting": "M19-MEL", "result": "> 100 µM (inactive)"}]}, {"smiles": "C=CCc1c(O)c2c(c3oc(=O)cc(C)c13)CC(C)O2", "note": "(stereo unspecified)", "values": [{"measurement": "GI50", "setting": "DMS-114", "result": "> 100 µM (inactive)"}, {"measurement": "GI50", "setting": "HOP-18", "result": "90.2 µM (inactive)"}, {"measurement": "GI50", "setting": "LXFL 529", "result": "> 100 µM (inactive)"}, {"measurement": "GI50", "setting": "KM-20L2", "result": "> 100 µM (inactive)"}, {"measurement": "GI50", "setting": "M19-MEL", "result": "72.4 µM (inactive)"}]}, {"smiles": "CON(C)c1nc(N(C)OC)nc(N(C)OC)n1", "values": [{"measurement": "GI50", "setting": "PC-3", "result": "> 10 µM (inactive)"}]}, {"smiles": "O=C(NC1C=Nc2ccc([N+](=O)[O-])cc2NC1=O)c1cc(Cl)cc([N+](=O)[O-])c1", "note": "(stereo unspecified)", "values": [{"measurement": "GI50", "setting": "DMS-114", "result": "19.7 µM (inactive)"}, {"measurement": "GI50", "setting": "LXFL 529", "result": "> 100 µM (inactive)"}, {"measurement": "GI50", "setting": "XF498", "result": "> 100 µM (inactive)"}, {"measurement": "GI50", "setting": "KM-20L2", "result": "> 100 µM (inactive)"}, {"measurement": "GI50", "setting": "M19-MEL", "result": "> 100 µM (inactive)"}]}, {"smiles": "COc1nc(C#CCC(C)O)nc(OC)n1", "note": "(stereo unspecified)", "values": [{"measurement": "GI50", "setting": "PC-3", "result": "22.6 µM (inactive)"}]}, {"smiles": "COCCCNc1nc(N)c(C#N)c(C#N)c1C#N", "values": [{"measurement": "GI50", "setting": "PC-3", "result": "> 10 µM (inactive)"}]}, {"smiles": "Cc1cn(C2CC(N)C(C(=O)NCC(=O)O)O2)c(=O)[nH]c1=O", "note": "(stereo unspecified)", "values": [{"measurement": "GI50", "setting": "PC-3", "result": "> 100 µM (inactive)"}]}, {"smiles": "CC1=C2C(O)C(C(C)C(=O)NC(C)C)CCC2(C)C=CC1=O", "note": "(stereo unspecified)", "values": [{"measurement": "GI50", "setting": "DMS-114", "result": "> 100 µM (inactive)"}, {"measurement": "GI50", "setting": "HOP-18", "result": "> 100 µM (inactive)"}, {"measurement": "GI50", "setting": "XF498", "result": "> 100 µM (inactive)"}, {"measurement": "GI50", "setting": "KM-20L2", "result": "> 100 µM (inactive)"}]}, {"smiles": "COC(=O)C(C(=O)C(=O)Nc1nnc(S)[nH]1)c1csc(-n2nc(-c3ccccc3)cc2-c2ccccc2)n1", "note": "(stereo unspecified)", "values": [{"measurement": "GI50", "setting": "LXFL 529", "result": "> 100 µM (inactive)"}, {"measurement": "GI50", "setting": "KM-20L2", "result": "> 100 µM (inactive)"}, {"measurement": "GI50", "setting": "786-0", "result": "> 100 µM (inactive)"}, {"measurement": "GI50", "setting": "M19-MEL", "result": "> 100 µM (inactive)"}]}, {"smiles": "COC(=O)c1cc(-c2cccn2C)c2c(c1C(=O)OC)c1ccccc1n2C", "values": [{"measurement": "GI50", "setting": "DMS-114", "result": "40.3 µM (inactive)"}, {"measurement": "GI50", "setting": "HOP-18", "result": "> 100 µM (inactive)"}, {"measurement": "GI50", "setting": "LXFL 529", "result": "40.2 µM (inactive)"}, {"measurement": "GI50", "setting": "XF498", "result": "> 100 µM (inactive)"}, {"measurement": "GI50", "setting": "786-0", "result": "> 100 µM (inactive)"}, {"measurement": "GI50", "setting": "RXF 631", "result": "80.4 µM (inactive)"}]}, {"smiles": "CC(=O)OC1CCC2(C)C3CCC4(C)C(c5ccc(=O)oc5)CC5OC54C3CCC2(O)C1", "note": "(stereo unspecified)", "values": [{"measurement": "GI50", "setting": "DMS-114", "result": "0.109 µM (active)"}, {"measurement": "GI50", "setting": "HOP-18", "result": "0.461 µM (active)"}, {"measurement": "GI50", "setting": "XF498", "result": "2.92 µM (inactive)"}, {"measurement": "GI50", "setting": "KM-20L2", "result": "2.15 µM (inactive)"}, {"measurement": "GI50", "setting": "M19-MEL", "result": "2.21 µM (inactive)"}]}, {"smiles": "Cc1cc(C)nc(NS(=O)(=O)c2ccc(NNC(=O)c3cccc4c(=O)c5ccccc5[nH]c34)cc2)n1", "values": [{"measurement": "GI50", "setting": "PC-3", "result": "38.4 µM (inactive)"}, {"measurement": "GI50", "setting": "786-0", "result": "> 100 µM (inactive)"}]}, {"smiles": "CCN1CCC(O)(C(C(=O)O)c2ccccc2)CC1", "note": "(stereo unspecified)", "values": [{"measurement": "GI50", "setting": "PC-3", "result": "> 100 µM (inactive)"}]}]}
